# From PMC7767381, “Exploring the Anti-Cancer Mechanism of Novel 3,4′-Substituted Diaryl Guanidinium Derivatives” (Pharmaceuticals, 2020)
# “Also recorded” adds a separate entry of the source. Counter-ions that a name gives are not always drawn. Like-named read-outs stand apart in the source and are kept apart here.
# Experiments:
# [1] = tested on: MCF-7 cells; assay: alamarBlue cell viability assay, MCF-7; format: cell-based; settings: Homo sapiens, MCF7, 72 h, read-out: MCF-7 IC50 ± SEM
# Excerpt: (§1) Cell viability and proliferation assays were used to evaluate the in vitro cytotoxicity of all synthesised compounds in a variety of different cancer cell lines using the alamarBlue® viability assay and the results are presented in Table 1 and Table 2. The sensitivity of cancer cells to drugs can often be compromised by PIK3CA, Ras and BRAF mutations. To determine whether such mutations are critical to the efficacy of our new compounds we tested them in a range of cancerous cell lines expressing different mutations. Firstly, we used the HL-60 (human promyelocytic leukaemia, NRas mutated) cell line for general cytotoxicity screening of all compounds. […] Lastly, toxicity against MCF-10A, which is a non-tumorigenic epithelial cell line, was also assessed for one of the most promising compounds (4). The graphs representing the viability results with the HL-60, MCF-7, HeLa, HCT-116, and HKH-2 cancer cell lines for compound 1 and derivatives 2, 3, and 4 are shown in Figures S7–S10 (ESI).
# (§2) Cells were counted and seeded in 96-well plates at a density of 2 × 10^5 cells/mL for HL-60, 2.5 × 10^4 cells/mL for MCF-7, MCF10A and HeLa, 1 × 10^5 cells/mL for HCT116 and HKH-2, all of them in their respective media. The 96-well plates were then treated with a 1:100 dilution of stock concentrations of drugs or EtOH (1% v/v)/DMSO (0.1% v/v) as vehicle control in triplicate. Three blank wells containing 200 µL RPMI with no cells were also set-up as blanks. After a 72 h incubation, 20 µL of alamarBlue was added to each well. The plates were incubated in darkness at 37 °C for 4–5 h using a Molecular Devices microplate reader, the fluorescence (F) was then read at an excitation wavelength of 544 nm and an emission wavelength of 590 nm. Cell viability was then determined by subtracting the mean blank fluorescence (Fb) from the treated sample fluorescence (Fs) and expressing this as a percentage of the fluorescence of the blanked vehicle control (Fc). […] The results were then plotted as a nonlinear regression, sigmoidal dose-response curves on Prism, from which the IC50 value for each drug was determined.
# (§3) The MCF-7 (human breast tumour) cell line was obtained from Prof. Mary Meegan, School of Pharmacy, TCD. It was maintained in Roswell Park Memorial Institute (RPMI) 1640 medium with stable glutamate (GlutaMax I) supplemented with 10% (v/v) fetal bovine serum (FBS), 1% (v/v) penicillin/ streptomycin (pen-strep) and 2 mM L-glutamine.
# (§4) The HeLa (human epitheloid cervix carcinoma) cell line was obtained from Prof. Thorfinnur Gunnlaugsson, School of Chemistry TCD. It was maintainedin Dulbecco's Modified Eagle's Medium (DMEM) supplemented with 10% (v/v) fetal bovine serum (FBS) and 1%(v/v) penicillin/ streptomycin (pen-strep).
# (§5) The HCT116and HKH-2 (human colon cancer cells) cell lines were obtained from Prof. James Murray, School of Biochemistry and Immunology TCD. They were maintainedin Dulbecco's Modified Eagle's Medium (DMEM) supplemented with 10% (v/v) fetal bovine serum (FBS), 1% (v/v) penicillin/ streptomycin (pen-strep), 1% (v/v) sodium pyruvate (NaPyr), 1% (v/v) L-glutamine (L-Glu) and, only for HKH-2, 0.6 mg/mL geneticine (G418).
# MCF-10A (human breast epithelial) cell line was obtained from Prof. Mary Meegan, School of Pharmacy, TCD. It was cultured in Dulbecco’s Modified Eagle Medium/Nutrient Mixture F-12 (DMEM/F12; Gibco) supplemented with 5% horse serum (Invitrogen), 20 ng/mL epidermal growth factor (Merck Millipore), 0.5 μg/mL hydrocortisone (Sigma), 100 ng/mL cholera toxin (Sigma), 10 μg/mL insulin (Sigma), and penicillin/streptomycin (1% v/v) (Gibco).
# (§6) 4.4. AlamarBlue ® Cell Viability Assay
# Cells were counted and seeded in 96 well plates at a density of 2 × 10^5 cells/mL for HL-60, 2.5× 10^4 cells/mL for MCF-7, MCF10A and HeLa, 1 × 10^5 cells/mL for HCT116 and HKH-2, all of them in their respective media. The 96 well plates were then treated with a 1:100 dilution of stock concentrations of drugs or EtOH (1% v/v)/DMSO (0.1% v/v) as vehicle control in triplicate. […]
# [2] = tested on: HCT116 cells; assay: alamarBlue cell viability assay, HCT116; format: cell-based; settings: Homo sapiens, HCT-116, 72 h, KRas mutant, read-out: HCT116 IC50 ± SEM
# Excerpt: as §1, §2, §3, §4, §5
# (§7) MCF-10A (human breast epithelial) cell line was obtained from Prof. Mary Meegan, School of Pharmacy, TCD. […]
# (§8) Cells were counted and seeded in 96 well plates at a density of 2 × 10^5 cells/mL for HL-60, 2.5× 10^4 cells/mL for MCF-7, MCF10A and HeLa, 1 × 10^5 cells/mL for HCT116 and HKH-2, all of them in their respective media. […]
# [3] = tested on: BRAF; design: method as in PMID 24858546, PMID 26318998; settings: in vitro; cited from earlier work
# [4] = tested on: HKH-2 cells; assay: alamarBlue cell viability assay, HKH-2; format: cell-based; settings: Homo sapiens, 72 h, mutated KRas disrupted, read-out: HKH-2 IC50 ± SEM
# Excerpt: as §1, §2, §3, §4, §5, §7, §8
# [5] = tested on: HL-60 cells; design: method as in PMID 24858546; settings: alamarBlue; previously tested compound; read-out: HL-60 IC50 ± SEM; cited from earlier work
# [6] = tested on: ERK phosphorylation (MAPK/ERK pathway); assay: Western immunoblot of ERK phosphorylation in HL-60 extracts; format: cell-based, human; settings: HL-60, 5 and 10 μM, 16 h
# Protocol: Thus, using Western immunoblot analysis of HL-60 extracts, we investigated the expression and phosphorylation levels of ERK (as an indication of ERK activation), which is the downstream effector of the Ras/BRAF signalling pathway (Figure 6).
# HL60s were seeded in T25 flasks at 50 × 10^4 cells/mL and cells were treated with either vehicle [0.5% EtOH (v/v)], 1–4, 9 or 52 (5 µM), as well as 1 (10 µM as reported). After 16 h, cells were collected and washed with PBS. Cell pellets were re-suspended in cold cell lysis buffer (radio-immunoprecipitation assay buffer) supplemented with 1% phosphatase inhibitor cocktail 2 and 3 (Sigma) and 10% protease inhibitor (Roche). Cells were lysed for 30 min on ice. Protein concentration was then determined by BCA assay. Lysates were boiled with Laemmli sample buffer [Tris-HCL 50 mM (pH 6.7), glycerol 10% (w/v), sodium dodecyl sulphate 2% (w/v), bromophenol blue 0.02% (w/v)] containing DTT […] for 10 min at 90 °C. Moreover, 20 µg of lysates were resolved by sodium dodecyl sulphate polyacrylamide gel electrophoresis (SDS-PAGE) and transferred onto PVDF transfer membrane (EMD Millipore). Membranes were blocked with 5% non-fat milk and probed with primary antibodies for ERK and phospho-ERK (Cell Signalling). Anti-GAPDH was used as a loading control (Calbiochem).
# Figure 6 Western immunoblot of HL-60 cell extracts following incubation with compounds 2, 3, 4, 9, 52 and 1 (as a control). HL60 cells were seeded at 2 × 10^5 cells/mL and were treated with either vehicle [0.5% EtOH (v/v)], compounds 52, 2, 9, 3 and 4 (5 µM) or compound 1 (5 and (*) 10 µM, as in reference) for 16 h. Cells were lysed and equal amounts of protein were loaded and separated on 15% SDS-PAGE gels, transferred to PVDF membrane and probed with antibodies against total and phosphorylated ERK. Anti-GAPDH was used as a loading control. Results are representative of 2 independent experiments.
# HL-60 cells were seeded in T25 flasks at 50 x10^4 cells/mL and treated with either vehicle [0.5% […]
# After 16 hours, cells were […]
# collected and washed with PBS. Cell pellets were re-suspended in cold cell lysis buffer (radio-immunoprecipitation assay buffer) supplemented with 1% phosphatase inhibitor cocktail 2 and 3 (Sigma) and 10% protease inhibitor (Roche). Cells were lysed for 30 minutes on ice.
# Protein concentration was then determined by BCA assay. Lysates were boiled with laemmli sample buffer [Tris-HCL 50 mM (pH 6.7), glycerol 10% (w/v), sodium dodecyl sulphate 2% (w/v), bromophenol blue 0.02% (w/v)] containing DTT […] for 10 min. at 90 °C. Also 20 µg of lysates were resolved by sodium dodecyl sulphate polyacrylamide gel electrophoresis (SDS - PAGE) and transferred onto PVDF transfer membrane (EMD Millipore). Membranes were blocked with 5% non-fat milk and probed with primary antibodies for ERK and phospho-ERK (Cell Signaling). Anti-GAPDH was used as a loading control (Calbiochem).
# [7] = tested on: HeLa cells; assay: alamarBlue cell viability assay, HeLa; format: cell-based; settings: Homo sapiens, 72 h, read-out: HeLa IC50 ± SEM
# Excerpt: as §1, §2, §3, §4, §5, §7, §8
# [8] = tested on: BRAF; design: method as in PMID 24858546, PMID 26318998; settings: cited from earlier work
# [9] = tested on: HL-60 cells; assay: alamarBlue cell viability assay, HL-60; format: cell-based; settings: Homo sapiens, HL-60, 72 h, read-out: HL-60 IC50 ± SEM
# Excerpt: as §1
# as §2, with “determined. […]” for “determined.”
# Pharmacy, TCD. It was maintained in Roswell Park Memorial Institute (RPMI) 1640 medium with stable glutamate (GlutaMax I) supplemented with 10% (v/v) fetal bovine serum (FBS), 1% (v/v) penicillin/ streptomycin (pen-strep) and 2 mM L-glutamine. […]
# as §6
# Cells were counted and seeded in 96 well plates at a density of 2 × 10^5 cells/mL for HL-60, 2.5× 10^4 cells/mL for MCF-7, MCF10A and HeLa, 1 × 10^5 cells/mL for HCT116 and HKH-2, all of them in their respective media. The 96 well plates were then treated with a 1:100 dilution of stock concentrations of drugs or EtOH (1% v/v)/DMSO (0.1% v/v) as vehicle control in triplicate.
# Three blank wells containing 200 µL media with no cells were also set-up as blanks. After a 72 h incubation, 20 µL of AlamarBlue was added to each well. The plates were incubated in darkness at 37 °C for 4-5 h. Using a Molecular Devices microplate reader, the fluorescence (F) was then read at an excitation wavelength of 544 nm and an emission wavelength of 590 nm.
# Cell viability was then determined by subtracting the mean blank fluorescence (Fb) from the treated sample fluorescence (Fs) and expressing this as a percentage of the fluorescence of the blanked vehicle control (Fc). […] The results were […]
# then plotted as a nonlinear regression, sigmoidal dose-response curves on Prism, from which the IC50 value for each drug was determined.
# Fs − Fb x 100 = % Cell Viability
# 60 cell line in a dose-dependent manner.
# (1 picture or pasted object on this page, not shown here)
Structure (SMILES),IC50 [1],IC50 [2],BRAF activity in radiometric assay [3],IC50 [4],IC50 [5],effect on ERK phosphorylation (Ras/BRAF pathway) [6],IC50 [7],inhibition of ATP binding to BRAF [8],"IC50 ([9]; alamarBlue, 72 h)",IC50 [9]
N=C(N)Nc1ccc(Oc2cccc(NC(=N)Nc3ccc(Cl)c(C(F)(F)F)c3)c2)cc1 [Compound 1],9.3 ± 1.87 µM,9.96 ± 0.6 µM,inhibited in vitro,19.2 ± 0.84 µM,9.72 ± 0.9 µM,inhibiting ERK phosphorylation; also recorded: abrogates ERK activation,9.48 ± 0.16 µM,did not inhibit ATP binding to BRAF,–,–
"N=C(N)Oc1ccc(Oc2cccc(Nc3ccc(Cl)c(C(F)(F)F)c3)c2)cc1 [Compound 70, 4-(3-((4-Chloro-3-(trifluoromethyl)phenyl)amino)phenoxy)phenyl carbamimidate hydrochloride]",7.32 ± 0.35 µM,–,–,–,–,–,–,–,4.22 ± 0.04 µM,–
"CNC(=O)c1cc(Oc2ccc(NC(=O)Nc3ccc(Cl)c(C(F)(F)F)c3)cc2)ccn1 [Sorafenib, reference compound]",3.07 ± 0.1 µM,6.79 ± 0.18 µM,–,4.43 ± 0.39 µM,–,–,4.59 ± 0.45 µM,–,–,2.53 ± 0.68 µM
